According to patent US20120009152A1, “NITRIC OXIDE DONORS FOR TREATMENT OF DISEASE AND INJURY” (priority 2002, published 2012):

What was measured:
[1] = test system: cerebral vessels in the ischemic boundary regions; test: Angiogenesis in ischemic brain after embolic MCA occlusion (vascular perimeters, BrdU endothelial cells, three dimensional vessel analysis); type: in vivo, rat
Procedure: Male Wistar rats weighing 320-380 gm were employed. The middle cerebral artery (MCA) was occluded by placement of an embolus at the origin of the MCA.
(§1) DETANONOate (0.4 mg/kg) was intravenously administered to rats (n=8) 24 hours after stroke and daily (i.p) for an additional 6 consecutive days. Ischemic rats (n=8) treated with the same volume of decayed DETANONOate were used as a control group. All rats were sacrificed 14 days after stroke. 2) To examine the effect of exogenous NO on brain levels of VEGF, DETANONOate (0.4 mg/kg) or saline was administered to ischemic rats (n=3 for each group) with the identical paradigm described in Protocol 1. These rats were sacrificed 7 days after stroke. […] Rats were sacrificed 14 days after stroke.
Bromodeoxyuridine (BrdU, Sigma Chemical), the thymidine analog that is incorporated into the DNA of dividing cells during S-phase, was used for mitotic labeling. BrdU (50 mg/kg) was […] (i.p) daily for 13 consecutive days into ischemic rats starting 1 day after MCA occlusion.
To examine neovascularization in ischemic brain, fluorescein isothiocyanate (FITC) dextran (2×10^6 molecular weight, Sigma, St. Louis, Mo.; 0.1 ml of 50 mg/ml) was administered intravenously to the ischemic rats subjected to 14 days of MCAo. Ti brains were rapidly removed from the severed heads and placed in 4% of paraformaldehyde at 4° C. for 48 hours. Coronal sections (100 μm) were cut on a vibratome. The vibratome sections were analyzed with a Bio-Rad MRC 1024 (argon and krypton) laser-scanning confocal imaging system mounted onto a Zeiss microscope (Bio-Rad; Cambridge, Mass.), as previously described. Seven 100 μm thick vibratome coronal sections at 2 mm intervals from bregma 5.2 mm to bregma −8.8 mm from each animal injected with FITC-dextran were selected. Eight brain regions in the ipsilateral and contralateral hemispheres were selected within a reference coronal section (interaural 8.8 mm, bregma 0.8 mm). These regions were scanned in 512×512 pixel (276×276 μm^2) format in the x-y direction using a 4× frame-scan average and twenty-five optical sections along the z-axis with a 1 μm step-size were acquired under a 40× objective. Vascular branch points, segment lengths and diameters were measured in three dimensions using software developed in the laboratory. Image acquisition and analysis were performed blindly.
For BrdU immunostaining, DNA was first denatured by incubating brain sections (6 μm) in 50% formamide 2×SSC at 65° C. for 2 hours and then in 2N HCl at 37° C. for 30 minutes. Sections were then rinsed with tris buffer and treated with 1% of H2O2 to block endogenous peroxidase. Sections were incubated with a mouse monoclonal antibody (mAb) against BrdU (1:1000, Boehringer Mannheim, Indianapolis, Ind. overnight and incubated with biotinylated secondary antibody (1:200, Vector, Burlingame, Calif.) for 1 hour.
To quantify BrdU immunoreactive endothelial cells, numbers of endothelial cells and numbers of BrdU immunoreactive endothelial cells in ten enlarged vessels adjacent to the ischemic lesion were counted from each rat. Numbers of endothelial cells and BrdU immunoreactive endothelial cells in the ten vessels of the contralateral homologous area were also counted. Data are presented as percentage of BrdU immunoreactive endothelial cells to total endothelial cells in ten enlarged vessels from each rat.
Vascular perimeters were measured on coronal sections immunostained with an anti-von Willebrand factor antibody as previously described.

rat VEGF = test: ELISA for VEGF in ischemic boundary regions; type: in vivo; details: control 13.4±1.5
Procedure: as §1
The ischemic boundary regions and homologous tissue in the contralateral hemisphere were dissected. The tissue was homogenized and centrifuged at 10,000 g for 20 min at 4° C. and the supernatant was collected. ELISA for VEGF in the supernatants was performed using a commercially available kit specific for rat VEGF (R&D, systems) according to the manufacture's instruction.

[2] = test system: Mouse brain-derived endothelial cells; test: Capillary-like tube formation assay; type: cell-based
Procedure: An in vitro angiogenesis assay was performed. Briefly, 0.8 ml of growth factor reduced Matrigel (Becton Dickinson) was added to pre-chilled 35 mm culture dishes and allowed to polymerize at 37° C. for 2 to 5 hours. […] For quantitative measurements of capillary tube formation, three random areas of Matrigel dishes were imaged and the length of continuous cords of three or more cells was measured.

[3] = test system: BrdU immunoreactive cells in dentate gyrus, SVZ and OB; test: Cell proliferation (BrdU) in non-ischemic aged rats; type: in vivo, rat; details: non-ischemic 18-month-old rats; DETA/NONOate 0.4 mg/kg daily 7 days; vs saline
Procedure: […] […] I.V bolus doses of DETA/NONOate (0.1 mg/kg each, every 15 min, and total dose of 0.4 mg/kg) on the first experimental day and DETA/NONOate (0.4 mg/kg) was administered (i.p) daily for an additional 6 consecutive days. Rats that received saline were used as a control group. Bromodeoxyuridine (BrdU) was used as mitotic labeling to measure cell proliferation. Animals received daily i.p injections of BrdU (50 mg/kg, Sigma) on the first experimental day and subsequently for 14 consecutive days. Rats were sacrificed at 14 and 42 days after the treatment. BrdU immunoreactive nuclei were counted on a computer monitor to improve visualization and in one focal plane to avoid over-sampling. Structures were sampled either by selecting predetermined areas on each section (OB) or by analyzing entire structures on each section (SVZ and dentate gyrus) (Zhang et al., 2001). All BrdU immunoreactive-positive nuclei in these areas are presented as the number of the BrdU immunoreactive cells/mm^2. Density for the selected several sections was averaged to obtain a mean density value for each animal (Zhang et al., 2001).
The question of whether this induction of neurogenesis by means of an NO donor in young adult (3-4 month old) rats would also be present in older rats was also tested. […]

[4] = DETANONOate 0.4 mg/kg, three dimensional analysis

SMILES	vessel enlargement in the contralateral hemisphere ([1]; DETANONOate 0.4 mg/kg from 24 h after stroke for 7 days, 14 days after stroke)	vascular perimeters around the ischemic lesion ([1]; DETANONOate 0.4 mg/kg from 24 h after stroke for 7 days, 14 days after stroke, vs decayed DETANONOate control)	numbers of proliferated (BrdU immunoreactive) endothelial cells ([1]; DETANONOate 0.4 mg/kg from 24 h after stroke for 7 days, vs control)	capillary segment diameters [1, 4]	capillary segment lengths [1, 4]	numbers of capillary segments in the boundary regions of ischemia ([1]; DETANONOate 0.4 mg/kg, three dimensional analysis, vs decayed DETANONOate)	VEGF levels in the ischemic boundary regions (rat VEGF; DETANONOate 0.4 mg/kg from 24 h after stroke, 7 days after stroke, n=3) [pg/mL]	capillary-like tube formation ([2]; DETANONOate 0.2 μM, 3 hours, vs DMEM only)	number of proliferating cells (dentate gyrus, SVZ, OB) [3]	angiogenesis in ischemic brain ([1]; Sildenafil 2 mg/kg fed from 24 h after stroke, daily 7 days, 14 days after stroke)	VEGF levels in the ischemic boundary (rat VEGF; Sildenafil treated ischemic rats, n=3 per group) [pg/mL]	capillary-like tube formation ([2]; Sildenafil 100 to 500 nM)
NCCN(CCN)/[N+]([O-])=N/O [DETANONOate, (Z)-1-[N-(2-aminoethyl)-N-(2-ammonioethyl)aminio]diazen-1-ium-1,2-diolate]	did not enlarge vessels in the contralateral hemisphere	significantly (P<0.01) enlarged vascular perimeters	significantly (p<0.05) increased	significantly smaller diameters	shorter segment lengths	significantly (p<0.05) increased the numbers of capillary segments	28.9 ± 1.0	significant increase in capillary-like tube formation	significantly increased the number of proliferating cells	–	–	–
CCCc1nn(C)c2c(=O)[nH]c(-c3cc(S(=O)(=O)N4CCN(C)CC4)ccc3OCC)nc12 [Sildenafil]	–	–	–	–	–	–	–	–	–	significant increase of angiogenesis	34.4 ± 2.9	concentration-dependent capillary-like tube formation
